From patent publication US20200306213A1, “COMPOUNDS FOR USE IN THE TREATMENT OR PREVENTION OF LOWE SYNDROME OR DENT DISEASE AND METHODS THEREFOR” (Université de Montréal, priority 2017, published 2020) come the findings set out here.

In assay [1] the test system is dOCRL dsRNA treated Drosophila S2 cells. Nature of the assay: Cytokinesis / multinucleation assay in dOCRL dsRNA treated Drosophila S2 cells. Type of assay: cell-based. The following applies: dOCRL depleted S2 cells, 50 μM, 24 hours. The protocol: (§1) Drosophila S2 cells were grown in Schneider's Drosophila medium complemented with FBS, Penicillin and Streptomycin (Invitrogen). […] Cells were fixed and labelled for F-Actin (red) and DNA (blue). Images are shown in FIGS. 1(a) to 1(c) in which stars mark multinucleated cells. The histogram of FIG. 2 represents the percentage of multinucleated cells quantified following the indicated treatments. Each P-values were calculated against dOCRL dsRNA treated cells.

Assay [2] relates to normal renal epithelial cells from a donor not mutated in OCRL1. Briefly: Abscission assay (time-lapse) in normal renal epithelial cells. Format: cell-based, human. Particulars: 25 μM, 60 hours time-lapse recording. How it is done:
Further tests were carried out using human cellular models for the Lowe syndrome. […] In this experiment, normal renal epithelial cells from a donor not mutated in OCRL1 and renal epithelial cells from a Lowe syndrome patient were grown in DMEM/F12 (Gibco BRL) supplemented with 10% fetal bovine serum, ITS supplemented, 4 pg/mL triiodothyronine, 36 ng/mL dexamethasone, 10 ng/ml EGF, 100 U/mL penicillin/streptomycin and 2 mM glutamine at 33° C. […] Cell divisions were recorded by time-lapse microscopy using a Nikon Eclipse Ti Inverted Microscope. The curves represent the cumulative distribution of the abscission times in the indicated cell populations (see FIG. 3). […] Comparatively, abscission delay observed in Lowe patient cells was not corrected by treatment with o-3M3FBS.

The test system of assay [3] is Ocrl−/− mutant zebrafish embryos. Nature of the assay: Pronephric uptake of Alexa 488-10 kDa dextran in Ocrl−/− mutant zebrafish embryos. Format: in vivo. The following applies: OCRL1 mutant embryos at 72 hpf, 5 μM in the water, assessed 2 hours after tracer injection. How it is done:
(§2) Finally, to test whether activation of PLC rescues phenotypes induced by loss of OCRL1 in an in vivo context, a previously established Ocrl−/− mutant zebrafish model for Lowe syndrome was used (Ramirez I. B. et al., 2012, Hum. Mol. Genet., 21, 1744-59, Oltrabella F., et al., 2015, PLoS Genetics, 11(4):e1005058). Wild type fish were of AB background.
(§3) Lysine-fixable 10 kDa dextran labelled with Alexa 488 (Molecular Probes) was prepared in PBS at 2 μg/μl final concentration. Zebrafish embryos at 72 hpf (hours post fertilisation) were treated for 60 minutes with DMSO control (0.005% DMSO), 5 μM m-3M3FBS or 5 μM o-3M3FBS by addition to the water. Embryos were then anaesthetised with 0.2 mg/ml MS222 (Sigma) in chorion water, and the tracer Alexa 488-10 kDa dextran (green) was injected into the common cardinal vein using a glass micropipette PLI-90 Pico-Injector (Harvard Apparatus). Embryos were returned to the respective drug treatments and incubated at 29° C. Pronephric accumulation was assessed 2 hours after injection on whole mount embryos using a fluorescent dissecting stereomicroscope (Leica MZ10F). Statistical analysis was performed using the Pearson's chi-squared test with Prism software (Prism Software Corporation).

Assay [4] relates to OCRL1-depleted HeLa cells. Nature of the assay: Abscission assay (time-lapse) in OCRL1-depleted HeLa cells. Particulars: OCRL1 siRNA-depleted HeLa cells, 25 μM, 60 hours time-lapse recording, compared to DMSO alone. Format: cell-based, human. How it is done: (§4) Further tests were carried out using human cellular models for the Lowe syndrome.
Human HeLa epithelial cells were grown in DMEM medium (Gibco BRL) supplemented with 10% fetal bovine serum, 100 U/ml penicillin/streptomycin and 2 mM glutamine at 37° C. HeLa cells were depleted in OCRL1 by transfecting control siRNAs (5′-CGUACGCGGAAUACUUCGA-3′) or OCRL1 RNAi (5′-GAAAGGAUCAGUGUCGAUA-3′) specific siRNAs for 72 h before imaging using HiPerFect reagents (Qiagen).
Cell divisions were recorded by time-lapse microscopy using a Nikon Eclipse Ti Inverted Microscope. The curves represent the cumulative distribution of the abscission times in the indicated cell populations (see FIG. 5).

Assay [5] has as its system wildtype zebrafish embryos. Nature of the assay: Pronephric uptake of Alexa 488-10 kDa dextran in wildtype zebrafish embryos. Type of assay: in vivo. The following applies: wildtype embryos at 72 hpf, 5 μM in the water, assessed 2 hours after tracer injection. How it is done: as §2, §3
For assay [6], the system named is renal epithelial cells from a Lowe syndrome patient. Nature of the assay: Abscission assay (time-lapse) in renal epithelial cells from a Lowe syndrome patient. Type of assay: cell-based, human. Particulars: 25 μM, 60 hours time-lapse recording. The protocol:
as §4
In this experiment, normal renal epithelial cells from a donor not mutated in OCRL1 and renal epithelial cells from a Lowe syndrome patient were grown in DMEM/F12 (Gibco BRL) supplemented with 10% fetal bovine serum, ITS supplemented, 4 pg/mL triiodothyronine, 36 ng/mL dexamethasone, 10 ng/ml EGF, 100 U/mL penicillin/streptomycin and 2 mM glutamine at 33° C.
Cell divisions were recorded by time-lapse microscopy using a Nikon Eclipse Ti Inverted Microscope. The curves represent the cumulative distribution of the abscission times in the indicated cell populations (see FIG. 3). […] Comparatively, abscission delay observed in Lowe patient cells was not corrected by treatment with o-3M3FBS.

The test system of assay [7] is control Drosophila S2 cells. Nature of the assay: Cytokinesis / multinucleation assay in control Drosophila S2 cells. Type of assay: cell-based. The following applies: 50 μM, 24 hours. The protocol:
as §1

For the molecule `Cc1cc(C)c(S(=O)(=O)Nc2cccc(C(F)(F)F)c2)c(C)c1` [m-3M3FBS, 2,4,6-trimethyl-N-(m-3-trifluoromethylphenyl) benzene sulfonamide], the “effect on cytokinesis failure / multi-nucleation rate” value in assay [1] is recorded as “prevented cytokinesis failure”. Moreover, the “effect on timing of abscission” value in assay [2] is given as “not affected”. The “rescue of endocytosis in the renal tubule (pronephric uptake of tracer)” value in assay [3] was “efficiently rescued endocytosis”. Moreover, the “correction of abscission delay” value was “showed correction of the abscission delay” in assay [4] and “fully corrected” in assay [6]. Also, the “effect on renal (pronephric) uptake of tracer” value in assay [5] is on record as “no effect upon renal uptake”. Besides, the “effect on cytokinesis (multinucleated cells)” value in assay [7] is given as “did not perturb cytokinesis”.
For `Cc1cc(C)c(S(=O)(=O)Nc2ccccc2C(F)(F)F)c(C)c1` [o-3M3FBS, reference compound], the “effect on cytokinesis failure / multi-nucleation rate” value in assay [1] was “did not significantly modify the multi-nucleation rate”. Besides, the “rescue of endocytosis in the renal tubule (pronephric uptake of tracer)” value in assay [3] was “no effect”. Also, the “correction of abscission delay” value is “no significant effect on abscission” in assay [4] and “not corrected” in assay [6]. Also, the “effect on renal (pronephric) uptake of tracer” value in assay [5] is “no effect”.
